According to ChEMBL document CHEMBL3885861, “Open TG-GATES”:

Species: Rattus norvegicus
Test: Open TG-GATES - Regimen: Daily Repeat
Assay type: toxicity, organism-based, Sprague-Dawley
Set-up: regimen Daily Repeat, gender Male, age 6 weeks
Settings: in vivo, po, route gavage; for APTT / Bas / Eos / Fbg / Ht / MCH / MCHC / MCV / Mono / Neu / PT / RBC / Ret: tissue Blood; for KIDNEY_L / KIDNEY_R / KIDNEY_TOTAL: tissue Kidney; for ALP / ALT / AST / BUN / CRE / Ca / Cl / DBIL / GLC / IP / K / LDH / Na / PL / RALB / TBIL / TC / TG / TP / gamma-GTP: tissue Plasma
[1] = 0 mg/kg, 72 h, dose level Control, time 3 day
[2] = 0 mg/kg, […], dose level Control, time 7 day
[3] = 0 mg/kg, […], dose level Control, time 14 day
[4] = 0 mg/kg, […], dose level Control, time 28 day
[5] = 60 mg/kg, 72 h, dose level Low, time 3 day
[6] = 60 mg/kg, […], dose level Low, time 7 day
[7] = 60 mg/kg, […], dose level Low, time 14 day
[8] = 60 mg/kg, […], dose level Low, time 28 day

## CC(=O)Nc1nnc(S(N)(=O)=O)s1 [ACETAZOLAMIDE]
[1]
  TERMINAL_BW: 229 g
  APTT: 21.2 s
  Bas: 0%
  Eos: 1%
  Fbg: 302.2 mg/dL
  Ht: 39.4%
  MCH: 21.3 pg
  MCHC: 34%
  MCV: 62.8 fL
  Mono: 3%
  Neu: 16%
  PT: 17 s
  RBC: 628.2 x10_4/ul
  Ret: 6.9%
  KIDNEY_L: 1 g
  KIDNEY_R: 1 g
  KIDNEY_TOTAL: 2 g
  ALP: 1759.2 IU/L
  ALT: 45.6 IU/L
  AST: 81.2 IU/L
  BUN: 17.8 mg/dL
  CRE: 0.1 mg/dL
  Ca: 10.8 mg/dL
  Cl: 106.6 meq/L
  DBIL: 0 mg/dL
  GLC: 193.6 mg/dL
  IP: 7.5 mg/dL
  K: 4.3 meq/L
  LDH: 208.8 IU/L
  Na: 142 meq/L
  PL: 135 mg/dL
  RALB: 3.1 g/dL
  TBIL: 0.008 mg/dL
  TC: 71.2 mg/dL
  TG: 86.2 mg/dL
  TP: 5.5 g/dL
  gamma-GTP: 1.8 IU/L
[2]
  TERMINAL_BW: 260.7 g
  APTT: 21.8 s
  Bas: 0%
  Eos: 0.8%
  Ht: 39.7%
  MCH: 21.9 pg
  MCHC: 35.8%
  MCV: 61.1 fL
  Mono: 2.4%
  Neu: 11.8%
  PT: 16.1 s
  RBC: 650.4 x10_4/ul
  Ret: 5.7%
  KIDNEY_L: 1 g
  KIDNEY_R: 1.1 g
  KIDNEY_TOTAL: 2.1 g
  ALP: 1905.2 IU/L
  ALT: 37.6 IU/L
  AST: 72.6 IU/L
  BUN: 22 mg/dL
  CRE: 0.2 mg/dL
  Ca: 10.8 mg/dL
  Cl: 106.4 meq/L
  DBIL: 0 mg/dL
  GLC: 203 mg/dL
  IP: 6.9 mg/dL
  K: 4.7 meq/L
  LDH: 193.6 IU/L
  Na: 142.2 meq/L
  PL: 132.6 mg/dL
  RALB: 3.1 g/dL
  TBIL: 0.002 mg/dL
  TC: 63.2 mg/dL
  TG: 101.8 mg/dL
  TP: 5.3 g/dL
  gamma-GTP: 1.6 IU/L
[3]
  TERMINAL_BW: 306.6 g
  APTT: 23.3 s
  Bas: 0%
  Eos: 0.8%
  Fbg: 297.2 mg/dL
  Ht: 40%
  MCH: 20.5 pg
  MCHC: 35.3%
  MCV: 58.2 fL
  Mono: 2.2%
  Neu: 14%
  PT: 16.5 s
  RBC: 688.2 x10_4/ul
  Ret: 5.1%
  KIDNEY_L: 1.2 g
  KIDNEY_R: 1.2 g
  KIDNEY_TOTAL: 2.4 g
  ALP: 1570.4 IU/L
  AST: 67.2 IU/L
  BUN: 19.8 mg/dL
  CRE: 0.2 mg/dL
  Ca: 10.6 mg/dL
  DBIL: 0 mg/dL
  GLC: 197.6 mg/dL
  IP: 7.4 mg/dL
  K: 4.3 meq/L
  LDH: 171.4 IU/L
  Na: 143.6 meq/L
  PL: 142.4 mg/dL
  RALB: 3.1 g/dL
  TBIL: 0.002 mg/dL
  TC: 67 mg/dL
  TP: 5.7 g/dL
  gamma-GTP: 2.4 IU/L
[4]
  TERMINAL_BW: 366.7 g
  APTT: 25.9 s
  Bas: 0%
  Eos: 0.6%
  Fbg: 316 mg/dL
  Ht: 44%
  MCH: 19 pg
  MCHC: 34.3%
  MCV: 55.6 fL
  Mono: 2%
  Neu: 12.4%
  RBC: 791.4 x10_4/ul
  Ret: 2.8%
  KIDNEY_L: 1.3 g
  KIDNEY_R: 1.3 g
  KIDNEY_TOTAL: 2.6 g
  ALP: 1140.2 IU/L
  ALT: 40.6 IU/L
  AST: 63.8 IU/L
  BUN: 18.8 mg/dL
  CRE: 0.2 mg/dL
  Cl: 105.4 meq/L
  DBIL: 0 mg/dL
  GLC: 207.8 mg/dL
  IP: 6.2 mg/dL
  K: 4.1 meq/L
  LDH: 138.8 IU/L
  Na: 142.6 meq/L
  RALB: 3.3 g/dL
  TBIL: 0.004 mg/dL
  TC: 69.8 mg/dL
  TG: 178.4 mg/dL
  TP: 6.1 g/dL
  gamma-GTP: 2.2 IU/L
[5]
  TERMINAL_BW: 226.3 g
  APTT: 20.3 s
  Bas: 0%
  Eos: 1%
  Fbg: 272.8 mg/dL
  Ht: 39.2%
  MCHC: 34%
  MCV: 60.6 fL
  Mono: 2.6%
  Neu: 15.4%
  PT: 16.8 s
  RBC: 648.4 x10_4/ul
  Ret: 5.3%
  KIDNEY_L: 1 g
  KIDNEY_R: 1 g
  KIDNEY_TOTAL: 2 g
  ALP: 1702 IU/L
  ALT: 42.2 IU/L
  AST: 67.4 IU/L
  BUN: 17 mg/dL
  CRE: 0.2 mg/dL
  Ca: 10.6 mg/dL
  Cl: 106.4 meq/L
  DBIL: 0 mg/dL
  GLC: 185.4 mg/dL
  IP: 7.3 mg/dL
  K: 4.1 meq/L
  LDH: 188.6 IU/L
  Na: 142.8 meq/L
  RALB: 2.9 g/dL
  TBIL: 0 mg/dL
  TC: 73.6 mg/dL
  TG: 137.8 mg/dL
  TP: 5.2 g/dL
  gamma-GTP: 1.4 IU/L
[6]
  TERMINAL_BW: 265.9 g
  APTT: 20.2 s
  Bas: 0%
  Eos: 0.8%
  Fbg: 299.4 mg/dL
  Ht: 37%
  MCH: 21.7 pg
  MCV: 61 fL
  Mono: 2.4%
  Neu: 13.4%
  PT: 16.1 s
  RBC: 606.4 x10_4/ul
  Ret: 6.9%
  KIDNEY_L: 1.2 g
  KIDNEY_R: 1.3 g
  KIDNEY_TOTAL: 2.5 g
  ALP: 1603.6 IU/L
  ALT: 40.6 IU/L
  AST: 69 IU/L
  BUN: 19.6 mg/dL
  CRE: 0.1 mg/dL
  Ca: 10.6 mg/dL
  Cl: 107.4 meq/L
  DBIL: 0 mg/dL
  GLC: 192.2 mg/dL
  IP: 7.2 mg/dL
  K: 4.2 meq/L
  LDH: 140.4 IU/L
  Na: 143.8 meq/L
  PL: 139.6 mg/dL
  RALB: 3 g/dL
  TBIL: 0.002 mg/dL
  TC: 71.8 mg/dL
  TG: 127 mg/dL
  TP: 5.2 g/dL
  gamma-GTP: 1.8 IU/L
[7]
  TERMINAL_BW: 293.1 g
  APTT: 22.7 s
  Bas: 0%
  Eos: 0.8%
  Fbg: 302.4 mg/dL
  MCHC: 35.9%
  MCV: 57.5 fL
  Mono: 2.2%
  Neu: 12.8%
  RBC: 687.6 x10_4/ul
  Ret: 4.3%
  KIDNEY_L: 1.2 g
  KIDNEY_R: 1.2 g
  KIDNEY_TOTAL: 2.4 g
  ALP: 1453.4 IU/L
  ALT: 41.2 IU/L
  AST: 65 IU/L
  BUN: 17 mg/dL
  CRE: 0.2 mg/dL
  Ca: 10.5 mg/dL
  Cl: 105.8 meq/L
  DBIL: 0 mg/dL
  GLC: 185.2 mg/dL
  IP: 6.7 mg/dL
  K: 3.8 meq/L
  LDH: 123.6 IU/L
  Na: 144 meq/L
  PL: 140.8 mg/dL
  RALB: 3 g/dL
  TBIL: 0.002 mg/dL
  TC: 65.8 mg/dL
  TG: 152.6 mg/dL
  TP: 5.5 g/dL
  gamma-GTP: 2 IU/L
[8]
  TERMINAL_BW: 367.2 g
  APTT: 23.2 s
  Bas: 0%
  Eos: 1%
  Fbg: 311 mg/dL
  Ht: 42.3%
  MCH: 19.2 pg
  MCHC: 34.3%
  MCV: 56 fL
  Mono: 1.6%
  Neu: 12%
  RBC: 755.4 x10_4/ul
  Ret: 2.9%
  KIDNEY_L: 1.4 g
  KIDNEY_R: 1.5 g
  KIDNEY_TOTAL: 2.9 g
  ALP: 1253 IU/L
  ALT: 41 IU/L
  AST: 63 IU/L
  BUN: 19 mg/dL
  CRE: 0.2 mg/dL
  Ca: 10.5 mg/dL
  Cl: 106.8 meq/L
  DBIL: 0 mg/dL
  GLC: 184.2 mg/dL
  IP: 6.2 mg/dL
  K: 4 meq/L
  LDH: 129 IU/L
  Na: 143 meq/L
  PL: 142.8 mg/dL
  RALB: 3.1 g/dL
  TBIL: 0.002 mg/dL
  TC: 70.8 mg/dL
  TG: 159.2 mg/dL
  TP: 5.9 g/dL
  gamma-GTP: 2.2 IU/L
200 mg/kg, 72 h, dose level Middle, time 3 day
  TERMINAL_BW: 215.5 g
